Test system: SW-620
Assay: Antiinvasive activity in human SW620 cells assessed as reduction in cell invasion at 2 uM incubated for 72 hrs by crystal violet staining based assay relative to untreated control
Type: functional

C=C1[C@@H](C)[C@H]2[C@H](Cc3ccccc3)NC(=O)[C@]23[C@H](OC(C)=O)/C=C/[C@@](C)(O)C(=O)[C@@H](C)C/C=C/[C@H]3[C@@H]1O [CYTOCHALASIN D]
fold change (FC): 4

Source: ChEMBL document CHEMBL4616595, “Targeted suppression of metastasis regulatory transcription factor SOX2 in various cancer cell lines using a sequence-specific designer pyrrole-imidazole polyamide” (Bioorg Med Chem, 2020)
